Patent US9540691B2, “Assays and methods for selecting a treatment regimen for a subject with depression” (THE GENERAL HOSPITAL CORPORATION, priority 2011, dated 2017)
Read-outs that look alike come from different tables or passages of the source.

Tested on: patients with major depressive disorder (MDD) resistant to treatment with SSRIs
Description: Using the sequential parallel design […] For those randomly assigned to the placebo/placebo sequence, both responders and non-responders to placebo during the first phase (n=25) remain on placebo during the second phase. […] Data from the previous double-blind, placebo-controlled study (Trial 1) can be pooled into the instant study (Trial 2) to provide a more accurate estimate of the placebo effect size, with a weighted average from the two Phases 1 (one from Trial 1 and one from Trial 2) and two Phases 2 (one from Trial 1 and one from Trial 2).
Once patients agree to participate in the study by signing the informed consent document, a full medical and psychiatric history is taken and a physical examination is performed. Screen rating scales are performed. […] The double-blind treatment lasts 60 days, during which patients are seen every 10 days (Visits 1 to 6 of Phase 1—See Table 4 below). Subjects are assigned randomization numbers in consecutive order. The randomization list is provided by a computer-generated random-number list and is maintained by the research pharmacist. In addition, the presence of any side effect or adverse event is carefully documented with the SAFTEE-SI [54]. Reasons for premature discontinuation, including intolerable side effects, are recorded.
All patients are asked to take one tablet of blinded study medication in the morning, in addition to their stable dose of ongoing SSRI treatment. […] Therefore, for patients randomly assigned to the placebo/placebo sequence, the tablets of study medication are placebo during both phases of the study.
The primary efficacy measure can include the change in 17-item Hamilton Rating Scale for Depression (HAM-D-17) score. […] A remission is, for example, defined as a HAM-D-17 score less than 8 at endpoint. Secondary measures of efficacy can include change in CGI-severity, with “clinical response defined” as CGI-S of 1 or 2 at endpoint. Patients with a CGI-I score greater than 5 at any post baseline visit or a 50 percent or greater worsening of depressive symptoms from baseline to that visit are discontinued from the study. Subjects are also discontinued from the study with any emergence of suicidality, homicidality, mania, or psychosis. Additional exemplary instruments that can be administered according to the study schedule include the following: • (1) Structured Clinical Interview for DSM-IV: The SCID-I/P, administered by the clinician, proceeds by modules to diagnose the different Axis I disorders. Questions are asked exactly as written, and each is based on the individual criteria from DSM-IV. Answers are generally rated on a scale of 1-3 (1=doubtful, 2=probable, 3=definite), and, based on the number of positive answers, a diagnosis is determined by a clinician. While the entire SCID-UP is administered at screen, the mood module is administered at each follow up visit. • (2) The MGH Antidepressant Treatment History Questionnaire (MGH-ATR): The MGH-ATR provides specific criteria for the adequate dose and adequate length of a trial for it to be considered a failure, thus allowing clinicians to systematically collect data aimed at assessing the degree of treatment-resistance of the current major depressive episode. • (3) The 28-item Hamilton Depression Scale (HAM-D-28): This version allows scoring of the HAM-D-17, 21-, 25-, and 28-item scales. This instrument is completed by the clinician by using a structured interview and defined anchor points, and aims to quantify the degree of depression over the past 7 days. The HAM-D is the most widely studied instrument for depression, and its reliability and validity are high. • (4) Clinical Global Impressions-Severity and Improvement (CGI-S, CGI-I): These two instruments are scored 1-7 by the clinician based on assessment of the patient's clinical status. They measure, based on history and scores on other instruments: a) Depressive severity (CGI-S) and b) Clinical Improvement (CGI-I). […] Safety Measurements […]

[1] = 15 mg/day adjunct to SSRI, Phase 1
[2] = 15 mg/day adjunct to SSRI, Phase 2 (Phase 1 completers/non-responders only)
[3] = 15 mg/day adjunct to SSRI, pooled Phases 1 and 2 (SPCD)

**Q.** Which results are given for `CN1c2c(nc(N)[nH]c2=O)NC[C@@H]1CNc1ccc(C(=O)N[C@@H](CCC(=O)O)C(=O)O)cc1` [6(S)-5-MTHF, 6(S)-5-methyltetrahydrofolate]?
**A.** CGI-S Mean score reduction (SD) [1]: −1.3 (0.9); HDRS-17 % Remission [1]: 15.7% (3); HDRS-17 % Response [1]: 38.8% (7); HDRS-17 Mean score reduction (SD) [1]: −7.5 (5.0); QIDS-SR % Remission [1]: 21.0% (4); QIDS-SR % Responsive [1]: 36.8% (7); QIDS-SR Mean score reduction (SD) [1]: −8.1 (5.3); CGI-S Mean score reduction (SD) [2]: −0.5 (1.0); HDRS-17 % Remission [2]: 11.1% (2); HDRS-17 % Response [2]: 27.7% (5); HDRS-17 Mean score reduction (SD) [2]: −3.8 (6.2); QIDS-SR % Remission [2]: 8.5% (1); QIDS-SR % Responsive [2]: 11.1% (2); QIDS-SR Mean score reduction (SD) [2]: −1.3 (4.9); CGI-S Mean score reduction [3]: −0.92; QIDS-SR % Remission [3]: 12.3%; QIDS-SR % Responsive [3]: 23.9%; QIDS-SR Mean score reduction [3]: −4.7; response rate (50% or greater reduction in HAM-D-17) vs placebo group (in words) (SSRI + 15 mg/day, after 30 days, SPCD, FIG. 3A): higher; reduction in scores of HAM-D-17, QIDS-SR and CGI-S vs placebo group (in words) (SSRI + 15 mg/day, after 30 days, SPCD, FIG. 3B): greater degree of reduction; percentage of remitters (HAM-D-17 <8 or QIDS-SR ≦5) vs placebo (in words) (SSRI + 15 mg/day, after 30 days, FIGS. 3C-3D): no significant difference
